Measured values as given in patent US9655991B2, “Stable hydrogel compositions including additives” (Allergan Industries, S.A.S., priority 2010, dated 2017).

Experiment: Oxidative degradation of gel by free radicals (H2O2) on rheometer
Settings: gel with AA2G and lidocaine vs gel with lidocaine
From the text: The effect of ascorbic acid 2-glucoside (AA2G™) on HA-based gel matrix oxidative degradation was studied. Oxidation testing was used as it allows testing of the resistance of a HA-based gel matrix to free radicals. Degradation by free radicals was simulated on a rheometer (Haake Rheostress 600) by addition of 1/7 ratio of H2O2 30% on the surface of a spread gel measured with a controlled stress rheometer according to the following method: frequency of 1 Hz with 0.8% controlled strain, during 3600 s at 35° C. The time value is taken at 5 Pa/s.

O=C1O[C@H]([C@@H](O)CO)C(O)=C1O[C@H]1O[C@H](CO)[C@@H](O)[C@H](O)[C@H]1O [Ascorbic acid 2-glucoside (AA2G™), Ascorbic acid 2-glucoside]
Protection against oxidative degradation (factor): 3
